Drawing on US9771361B2, “Inhibitors of influenza viruses replication” (priority 2013, dated 2017), this text covers EC50 for 1 molecule.

Among the test systems are A/WS/33; A/Port Chalmers/1/73; A/California/07/2009; A/St. Petersburg/8/2006; A/Wisconsin/67/2005; A/NWS/33; A/Mexico/4108/2009; A/Weiss/43; A/Uruguay/716/2007; A/Texas/48/2009; A/Texas/12/2007; A/Nebraska/1/2006; A/Georgia/20/2006; A/Virginia/01/2006; A/Puerto Rico/8/34.
What all share (format): cell-based, influenza A virus
Details in all cases: read-out: Cell Protection Assay EC50 ± SD Comp (1)

Experiment [1] relates to A/California/07/2009 NYMC X-179A.

In the case of `O=C(O)[C@H]1C2CCC(CC2)C1Nc1nc(-c2c[nH]c3ncc(F)cc23)ncc1F` (stereo partly shown) [Compound (1)], the EC50 in the experiment with A/WS/33 worked out at 3.2 ± 4.3 nM; in the experiment on A/Port Chalmers/1/73 it was 0.54 ± 0.11 nM; in the experiment on A/California/07/2009, 1.8 ± 1.6 nM; in the experiment on A/St. Petersburg/8/2006 it was 0.88 ± 0.69 nM; in the experiment on A/Wisconsin/67/2005, 1.8 ± 0.24 nM; in the experiment on A/NWS/33, 0.73 ± 0.1 nM. Besides, the EC50 with A/Mexico/4108/2009 came to 2.7 ± 1.8 nM; in the experiment on A/Weiss/43, 0.31 ± 0.23 nM; in the experiment with A/Uruguay/716/2007, 3.5 ± 5.1 nM; in the experiment on A/Texas/48/2009, 2.8 ± 3.2 nM; with A/Texas/12/2007, 0.65 ± 0.22 nM; in the experiment with A/Nebraska/1/2006, 2.1 ± 1.3 nM. Further, the EC50 with A/Georgia/20/2006 is 2.6 ± 3.8 nM; with A/Virginia/01/2006, 0.42 ± 0.24 nM; with A/Puerto Rico/8/34, 3.2 ± 1.8 nM; in experiment [1], 2.7 ± 1.8 nM.

One may read the EC50 as the midpoint of the concentration-response curve.
